Results on 4 molecules are retold here after patent publication US9717751B2, “Chitin or derivatives thereof for the prevention and/or treatment of parasitoses” (LESAFFRE ET COMPAGNIE, priority 2012, dated 2017).

Data set [1] relates to C. parvum. As to the kind of experiment: Direct test: compound added to C. parvum-infected Caco-2 cells. The data set is classed as cell-based, Cryptosporidium parvum. The following applies: direct addition, 500 μg/ml; for viability at 500 µg/mL: Cryptosporidium parvum, T+ = 100, read-out: % of viable sporozoites; for Number of sporozoites: single tests; for Number of sporozoites, Mean: triplicate mean. On the procedure:
(§1) Two cell models were tested: HCT-8 cells (human ileocecal adenocarcinoma cells) and Caco-2 cells (human colonic adenocarcinoma cells).
(§2) The Iowa Cryptosporidium parvum strain (Waterborne inc., New Orleans, La., USA) is used for the tests.
(§3) The infection is carried out on cells at 70%-80% confluence, cultured in a monolayer on collagen-coated coverslips in 24-well plates.
(§4) The supernatant of the cells in a monolayer is replaced with 3 ml of culture medium to which 1×10^4 C. parvum oocysts are added. After incubation for 3 hours in a humid incubator at 37° C. and 5% CO2, the supernatant is replaced with 3 ml of culture medium and incubated for 48 h in a humid incubator at 37° C., 5% CO2 and 80% humidity.
(§5) The culture medium of the infected cells is replaced with 1 ml of culture medium to which the test compound is then added, at a final concentration of 500 μg/ml.
(§6) The plates are incubated for 48 h in a humid incubator at 37° C. and 5% CO2.
(§7) The intracellular oocysts are stained after fixing the cells with methanol. The labeling is carried out using a specific conjugated polyclonal antibody (Sporo-Glo 20×Waterborne inc., New Orleans, La., USA). The coverslips are then mounted on slides. The intracellular oocysts are counted with a fluorescence microscope.
(§8) On each slide, 6×50 fields randomly chosen over the entire surface area of the slide are counted.
(§9) The results obtained are a triplicate mean. The data are analyzed by ANOVA. A p-value of less than or equal to 0.05 is considered to be significant.
(§10) The various compounds are tested at a dose of 500 μg/ml.

For data set [2], the system named is C. parvum. As to the kind of experiment: Direct test: compound added to C. parvum-infected HCT-8 cells. Conditions: direct addition, 500 μg/ml; for viability at 500 µg/mL: Cryptosporidium parvum, T+ = 100, read-out: % of viable sporozoites; for Number of sporozoites: single tests; for Number of sporozoites, Mean: triplicate mean. The data set is classed as cell-based, Cryptosporidium parvum. On the procedure:
as §1, §2, §3, §4, §5, §6, §7, §8, §9, §10

For data set [3], the system named is C. parvum. Put plainly: Preincubation test: C. parvum oocysts preincubated 24 h with compound, then infection of Caco-2 cells. Conditions: preincubation 24 h, 500 μg/ml; for viability at 500 µg/mL: Cryptosporidium parvum, T+ = 100, read-out: % of viable sporozoites; for Number of sporozoites, Mean: triplicate mean. It counts as cell-based, Cryptosporidium parvum. How it is done:
(§11) Two cell models were tested: HCT-8 cells (human ileocecal adenocarcinoma cells) and Caco-2 cells (human colonic adenocarcinoma cells). The Iowa Cryptosporidium parvum strain (Waterborne inc., New Orleans, La., USA) is used for the tests. The infection is carried out on cells at 70%-80% confluence, cultured in a monolayer on collagen-coated coverslips in 24-well plates. The supernatant of the cells in a monolayer is replaced with 3 ml of culture medium to which 1×10^4 C. parvum oocysts are added. After incubation for 3 hours in a humid incubator at 37° C. and 5% CO2, the supernatant is replaced with 3 ml of culture medium and incubated for 48 h in a humid incubator at 37° C., 5% CO2 and 80% humidity. In each well of a plate, 1×10^4 oocysts are brought into contact with 500 μg/ml of paromomycin, chitosan or NAG. The plates are incubated for 24 h in a humid incubator at 37° C. and 5% CO2. The cells are then infected as indicated above. The intracellular oocysts are stained after fixing the cells with methanol. The labeling is carried out using a specific conjugated polyclonal antibody (Sporo-Glo 20×Waterborne inc., New Orleans, La., USA). The coverslips are then mounted on slides. The intracellular oocysts are counted with a fluorescence microscope. On each slide, 6×50 fields randomly chosen over the entire surface area of the slide are counted. The results obtained are a triplicate mean. The data are analyzed by ANOVA. A p-value of less than or equal to 0.05 is considered to be significant. The tested compounds are incubated for 24 h with C. parvum oocysts before the in vitro infection at a dose of 500 μg/ml.

Data set [4] relates to C. parvum. As to the kind of experiment: Preincubation test: C. parvum oocysts preincubated 24 h with compound, then infection of HCT-8 cells. It counts as cell-based, Cryptosporidium parvum. Conditions: preincubation 24 h, 500 μg/ml; for viability at 500 µg/mL: Cryptosporidium parvum, T+ = 100, read-out: % of viable sporozoites; for Number of sporozoites: single tests; for Number of sporozoites, Mean: triplicate mean. How it is done: as §11

Data set [5] has as its system CMT-93 cells. As to the kind of experiment: Chemokine production by epithelial cells (quantitative RT-PCR). The data set is classed as cell-based, murine. The following applies: 24 h incubation. On the procedure:
The tests are carried out on cells of the CMT-93 murine line (mycoplasma-free) cultured in complete medium comprising 10% of FCS (Fetal Calf Serum) or on dendritic cells derived from bone marrow (immature) in the presence of GM-CSF (Granulocyte Macrophage Colony Stimulating Factor) added regularly to the culture for 9 days. Chemokine production by the epithelium or other intestinal cells is important for the recruitment of the inflammatory cells required for protection against cryptosporidiosis in newborns. Chemokine production by epithelial cells is measured by quantitative RT-PCR (quantification by incorporation of Sybr green) after incubation of CMT-93 cells with the various compounds for 24 h.

In data set [6] the test system is C. parvum. As to the kind of experiment: Effect of the compounds on C. parvum development in CMT-93 murine cells. Conditions: CMT-93 cells, 18 μg/ml. It counts as cell-based, Cryptosporidium parvum. How it is done: The C. parvum oocysts used were isolated from feces (stools) of calves that had been experimentally infected (by INRA [French National Institute for Agricultural Research] of Tours).
The tests are carried out on cells of the CMT-93 murine line (mycoplasma-free) cultured in complete medium comprising 10% of FCS (Fetal Calf Serum).
Interferon-γ at 10 ng/ml is used as a positive control. This is because partial inhibition of C. parvum multiplication in enterocytes under the action of this cytokine has been described.
The cells of the CMT-93 line are seeded in a proportion of 3.6×10^5 cells per well.
The test compounds are added after 8 h.
After 24 h, the cells are lysed with trypsin and labeled with a fluorescent lectin (VVL-FITC), in order to be able to find the infected cells with a fluorescence microscope. The number of infected cells is found manually.

Values joined by “and” are separate entries in the source; they are usually repeats but may differ in a detail not shown here. Equal values may be shown once. Where a name gives a salt, the structure may show the parent alone.

Regarding `CC(=O)N[C@H]1C(O)O[C@H](CO)[C@@H](O)[C@@H]1O` (stereo partly drawn) [NAG, N-acetylglucosamine], the viability at 500 µg/mL in data set [1] (48 h) is 64.8%; in data set [2] (48 h) it was 11.6%; in data set [3], 2.61%; in data set [4] it was 0.99%. The “reduction in parasite development” value is reported as 35.2% in data set [1] and 88.4% in data set [2]. For the same molecule, the Number of sporozoites in data set [1] (48 h) was 656 and 485 and 337; in data set [2] (48 h) it was 172 and 131 and 99; in data set [3] (single tests), 21 and 39 and 31; in data set [4], 12 and 14 and 7. The “Number of sporozoites, Mean” value in data set [1] (48 h) is 571; in data set [2] (48 h) it was 134; in data set [3] it was 30; in data set [4], 11. Moreover, the “effectiveness compared with paromomycin” value in data set [2] was “more effective than paromomycin”. Moreover, the figures for the “reduction of parasite development” value in data set [3] and in data set [4] were 97.4% and 99.0%, respectively. In addition, in data set [5], the “production of chemokines CXCL10 and CCL20, ranking of the products” value was “most effective”. Also, the “reduction of parasite multiplication compared with the nontreated control” value in data set [6] was 43%.

For `NC[C@@H]1O[C@H](O[C@H]2[C@@H](O)[C@H](O[C@@H]3[C@@H](O)[C@H](N)C[C@H](N)[C@H]3O[C@H]3O[C@H](CO)[C@@H](O)[C@H](O)[C@H]3N)O[C@@H]2CO)[C@H](N)[C@@H](O)[C@@H]1O` [Paromomycin, paromomycin sulfate, reference compound], the viability at 500 µg/mL in data set [1] (48 h) was found to be 66.4%; in data set [2] (48 h), 55.4%; in data set [3], 2.87%; in data set [4] it was 0.53%. For the same molecule, the “reduction in parasite development” value came out at 33.6% in data set [1] and 44.6% in data set [2]. Further, the “Number of sporozoites, Mean” value is on record as 592 in data set [1] (48 h), 191 in data set [2] (48 h), 33 in data set [3] and 6 in data set [4]. For the same molecule, the Number of sporozoites in data set [2] (48 h) was 208 and 178 and 187. For the same molecule, the entries for the “reduction of parasite development” value in data set [3] and in data set [4] were 97.1% and 99.5%, respectively.

In the case of chitosan hydrochloride, the “effectiveness compared with paromomycin” value was “more effective” in data set [1] and “more effective than paromomycin” in data set [2]. The “reduction in parasite development” value in data set [1] amounted to 68%; in data set [2] it was 93.6%. Further, the “% of viable sporozoites” value in data set [1] (48 h, T+ = 100) is 32.0%; in data set [2] (48 h, T+ = 100), 6.4%; in data set [3] (T+ = 100) it was 2.44%; in data set [4] (T+ = 100), 4.3%. The Number of sporozoites was 372 and 199 and 276 in data set [1] (48 h, hydrochloride); 90 and 66 and 64 in data set [2] (48 h, hydrochloride); 47 and 52 and 37 in data set [4] (hydrochloride). The “Number of sporozoites, Mean” value in data set [1] (48 h) stood at 282; in data set [2] (48 h), 73; in data set [3], 28; in data set [4] it was 47. Also, the figures for the “reduction of parasite development” value in data set [3] and in data set [4] were 97.6% and 95.7%, respectively. Also, in data set [6], the “reduction of parasite multiplication compared with the nontreated control” value came out at 31%.

On to “poly-(N-deacetyl-D-glucosamine) [insoluble chitosan]”, for which the infected cells entry in data set [6] (nontreated control 50% of infected cells) is listed as “approximately 40%”.
